This is an account of results in ChEMBL document CHEMBL1157397, “Cyclooxygenase (COX)-1 and -2 inhibitory labdane diterpenes from Crassocephalum mannii” (J Nat Prod, 2008).

In the assay the target is T1, Prostaglandin G/H synthase 1 (Ovis aries) (UniProt P05979).
T1 sequence (whole entry): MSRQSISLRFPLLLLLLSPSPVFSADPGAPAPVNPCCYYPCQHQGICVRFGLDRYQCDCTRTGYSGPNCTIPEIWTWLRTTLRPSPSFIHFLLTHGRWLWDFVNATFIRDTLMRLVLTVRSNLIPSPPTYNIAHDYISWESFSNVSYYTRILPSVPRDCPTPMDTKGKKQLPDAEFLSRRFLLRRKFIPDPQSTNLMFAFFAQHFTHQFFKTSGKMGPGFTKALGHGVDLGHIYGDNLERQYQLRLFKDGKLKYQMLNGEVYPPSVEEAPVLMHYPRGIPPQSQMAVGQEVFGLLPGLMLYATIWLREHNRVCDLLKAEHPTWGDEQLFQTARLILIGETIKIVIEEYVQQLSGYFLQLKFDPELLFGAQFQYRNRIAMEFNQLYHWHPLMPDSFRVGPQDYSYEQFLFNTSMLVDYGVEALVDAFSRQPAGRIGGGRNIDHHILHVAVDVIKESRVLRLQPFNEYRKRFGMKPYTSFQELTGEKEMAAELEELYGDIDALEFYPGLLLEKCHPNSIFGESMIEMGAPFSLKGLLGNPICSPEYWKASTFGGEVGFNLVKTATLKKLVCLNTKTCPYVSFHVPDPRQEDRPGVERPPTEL
Briefly: Inhibition of ovine COX1 at 100 uM.
For the compound `CC(=O)OC[C@]1(C)CCC[C@]2(C)[C@@H](CC/C(C)=C/C(=O)O)[C@](C)(O)CC[C@@H]12`, the inhibition was 2%.

Take `C/C(=C\C(=O)O)CC[C@@H]1[C@@]2(C)CCC[C@@](C)(CO)[C@@H]2CC[C@@]1(C)O`: the inhibition turned out to be 29%.

`CC(=O)OCC[C@@H]1[C@@]2(C)CCC[C@@](C)(COC(C)=O)[C@@H]2CC[C@@]1(C)O`: the inhibition came to 18%.

Turning to `C[C@@]1(CO)CCC[C@]2(C)[C@@H](CCO)[C@](C)(O)CC[C@@H]12`, the inhibition turned out to be 44%.

One may read the inhibition as the share of the control response that was lost under treatment. Lower therefore signals little suppression.
